≈ marks a conversion by molar mass, not a printed value. Where two headings read alike, the source gives them in different places. Blank lines part the entries; values can stand above or below the compound they belong to.
Tests used:
[1] = test system: Enterococcus faecalis ATCC 29212; test: Antibacterial susceptibility testing, broth dilution method (CLSI); format: cell-based; conditions: ATCC29212, Table 6, solutions stored at 25 degrees Celsius for the test period in days indicated
Description: (§1) Testing was performed using broth dilution method according to Clinical and Laboratory Standards Institute (CLSI) guidelines M100-S23/S24; M07-A9, the disclosure of which is herein incorporated by reference.
(§2) The antibiotic activity of eight aqueous pharmaceutical compositions was determined and compared to the activity of the injectable reference finished product, Vancocin, manufactured by Flynn Pharma Ltd. Antibiotic activity was determined against quality control strains: Staphylococcus aureus ATCC 29213, Enterococcus faecalis ATCC 29212 and Streptococcus pnemoniae ATCC 49619.

[2] = test system: Staphylococcus aureus ATCC 29213; test: as above; format: cell-based; conditions: ATCC29213, Table 6, solutions stored at 25 degrees Celsius for the test period in days indicated
Description: as §1, §2

[3] = test system: Streptococcus pnemoniae ATCC 49619; test: as above; format: cell-based
Description: as §1, §2

[4] = cited from earlier work
[5] = multiple dosing of 500 mg Vancomycin infused over 30 minutes

MIC [1]: 0.5 µg/mL (≈ 1.37 µM) | MIC [2]: 1 µg/mL (≈ 2.74 µM) | MIC ([3]; Table 6, solutions stored at 25 degrees Celsius for the test period in days indicated, read-out: Streptococcus pneumoniae MIC): 0.06 µg/mL (≈ 0.164 µM)
Compound: CC1(C)S[C@@H]2[C@H](NC(=O)[C@H](N)c3ccc(O)cc3)C(=O)N2[C@H]1C(=O)O [Amoxicillin USP standard, Amoxicillin]

Compound: CN[C@H](CC(C)C)C(=O)N[C@H]1C(=O)N[C@@H](CC(N)=O)C(=O)N[C@H]2C(=O)N[C@H]3C(=O)N[C@H](C(=O)N[C@H](C(=O)O)c4cc(O)cc(O)c4-c4cc3ccc4O)[C@H](O)c3ccc(c(Cl)c3)Oc3cc2cc(c3O[C@@H]2O[C@H](CO)[C@@H](O)[C@H](O)[C@H]2O[C@H]2C[C@](C)(N)[C@H](O)[C@H](C)O2)Oc2ccc(cc2Cl)[C@H]1O [Vancomycin USP standard, Vancomycin]
MIC ([3]; read-out: Streptococcus pneumoniae MIC (μg/mL)): 0.125 µg/mL (≈ 0.0863 µM)

Compound: CN[C@H](CC(C)C)C(=O)N[C@H]1C(=O)N[C@@H](CC(N)=O)C(=O)N[C@H]2C(=O)N[C@H]3C(=O)N[C@H](C(=O)N[C@@H](C(=O)O)c4cc(O)cc(O)c4-c4cc3ccc4O)[C@H](O)c3ccc(c(Cl)c3)Oc3cc2cc(c3O[C@@H]2O[C@@H](CO)[C@@H](O)[C@H](O)[C@@H]2O[C@@H]2C[C@](C)(N)[C@H](O)[C@@H](C)O2)Oc2ccc(cc2Cl)[C@H]1O [Vancomycin]
mean plasma concentration immediately after infusion ([4]; intravenous infusion of 1 gram Vancomycin (15 mg/kg) over 60 minutes): 63 micrograms/mL | mean plasma concentration at the completion of infusion [4, 5]: about 49 microgram/mL | mean plasma concentration six hours after infusion [4, 5]: about 10 microgram/mL | mean plasma concentration two hours after infusion [4, 5]: about 19 microgram/mL
